Laboratory results from article PMC6923384, “Insights into the κ/ι-carrageenan metabolism pathway of some marine Pseudoalteromonas species” (Communications Biology, 2019).
One block for each molecule: values may come before it.

Key:
[1] = target: S1_19B, exo-G4S κ-carrageenan sulfatase from Pseudoalteromonas fuliginea PS47 (Pseudoalteromonas fuliginea PS47); assay: not stated; in solution; method told only in Supplementary Notes (section 3) and Supplementary Fig. 7b-d
[2] = target: S1_19B, exo-G4S κ-carrageenan sulfatase from Pseudoalteromonas fuliginea PS47 (Pseudoalteromonas fuliginea PS47); assay: crystal structure; hanging drop vapor-diffusion at 18 °C; N-terminal His-Tag cleaved with thrombin before crystallization
BovGH167 = target: T1, BovGH167 (Bacteroides ovatus, UniProt A0ABF7PI57); assay: thin layer chromatography of products; format: biochemical; details: hydrolysis of β-1,4-linkage to κ-NC2 and likely β-NC2 activity as GH167
T1 construct: gene HMPREF1069_02044; residues 26-775, synthetic codon-optimised gene, pET28a His-tag, E. coli BL21(DE3) Star
T1 sequence (A0ABF7PI57 26-775): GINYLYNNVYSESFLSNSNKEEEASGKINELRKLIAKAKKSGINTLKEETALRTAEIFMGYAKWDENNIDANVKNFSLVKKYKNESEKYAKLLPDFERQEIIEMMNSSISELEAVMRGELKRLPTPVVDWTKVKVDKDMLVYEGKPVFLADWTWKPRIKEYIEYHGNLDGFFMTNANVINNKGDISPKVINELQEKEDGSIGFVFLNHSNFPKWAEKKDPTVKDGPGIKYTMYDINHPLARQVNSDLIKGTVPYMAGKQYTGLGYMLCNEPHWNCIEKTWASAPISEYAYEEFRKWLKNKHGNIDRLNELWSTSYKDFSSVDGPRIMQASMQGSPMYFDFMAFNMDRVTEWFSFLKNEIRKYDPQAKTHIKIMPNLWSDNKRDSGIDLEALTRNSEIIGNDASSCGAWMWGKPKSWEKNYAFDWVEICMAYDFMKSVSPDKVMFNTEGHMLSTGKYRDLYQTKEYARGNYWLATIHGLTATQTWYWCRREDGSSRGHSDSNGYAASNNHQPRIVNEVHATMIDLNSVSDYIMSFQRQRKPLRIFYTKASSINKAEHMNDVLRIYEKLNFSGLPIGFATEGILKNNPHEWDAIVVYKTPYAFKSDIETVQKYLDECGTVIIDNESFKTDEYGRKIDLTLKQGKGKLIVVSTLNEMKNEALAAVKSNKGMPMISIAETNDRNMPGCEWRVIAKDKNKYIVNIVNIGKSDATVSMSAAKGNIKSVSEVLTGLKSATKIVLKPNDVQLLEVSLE

GH167 = target: T2, GH167 (Pseudoalteromonas fuliginea, UniProt A0ABQ6RII1); assay: thin layer chromatography of products; format: biochemical; details: hydrolysis of β-1,4-linkage to κ-NC2 and likely β-NC2
T2 construct: gene EU509_08810; residues 21-808, signal peptide removed, pET28a His-tag, E. coli BL21(DE3) Star
T2 sequence (A0ABQ6RII1 entry or part of it): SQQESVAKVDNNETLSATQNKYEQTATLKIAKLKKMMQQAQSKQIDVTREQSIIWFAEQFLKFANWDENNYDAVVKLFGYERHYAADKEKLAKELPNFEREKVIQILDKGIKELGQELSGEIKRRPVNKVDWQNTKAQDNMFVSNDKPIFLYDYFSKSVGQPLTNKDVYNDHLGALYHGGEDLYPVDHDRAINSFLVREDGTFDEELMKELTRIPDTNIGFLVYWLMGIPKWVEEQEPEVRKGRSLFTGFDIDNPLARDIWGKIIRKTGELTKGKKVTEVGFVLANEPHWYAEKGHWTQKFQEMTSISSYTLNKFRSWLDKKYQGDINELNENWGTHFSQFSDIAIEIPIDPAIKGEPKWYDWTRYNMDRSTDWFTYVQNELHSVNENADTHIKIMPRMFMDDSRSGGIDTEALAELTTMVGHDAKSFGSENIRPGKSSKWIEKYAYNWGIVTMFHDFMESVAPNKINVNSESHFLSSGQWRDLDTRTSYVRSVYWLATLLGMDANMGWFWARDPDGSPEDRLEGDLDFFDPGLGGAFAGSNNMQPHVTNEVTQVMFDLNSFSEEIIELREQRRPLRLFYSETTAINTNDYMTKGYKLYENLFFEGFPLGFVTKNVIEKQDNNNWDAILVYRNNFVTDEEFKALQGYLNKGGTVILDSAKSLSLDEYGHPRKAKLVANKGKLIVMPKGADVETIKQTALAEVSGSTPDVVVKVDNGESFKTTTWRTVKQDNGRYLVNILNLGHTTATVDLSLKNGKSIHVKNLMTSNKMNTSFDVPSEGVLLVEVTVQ

S1_19A = target: T3, S1_19A (Pseudoalteromonas fuliginea, UniProt A0ABQ6RIU8); assay: product analysis, details in supplement; format: biochemical; details: removes 4-sulfate from G4S adjacent to the non-reducing end
T3 construct: gene EU509_08825; pET28a His-tag, E. coli BL21(DE3) Star with formylglycine generating enzyme; cloning described previously
T3 sequence (A0ABQ6RIU8 entry or part of it): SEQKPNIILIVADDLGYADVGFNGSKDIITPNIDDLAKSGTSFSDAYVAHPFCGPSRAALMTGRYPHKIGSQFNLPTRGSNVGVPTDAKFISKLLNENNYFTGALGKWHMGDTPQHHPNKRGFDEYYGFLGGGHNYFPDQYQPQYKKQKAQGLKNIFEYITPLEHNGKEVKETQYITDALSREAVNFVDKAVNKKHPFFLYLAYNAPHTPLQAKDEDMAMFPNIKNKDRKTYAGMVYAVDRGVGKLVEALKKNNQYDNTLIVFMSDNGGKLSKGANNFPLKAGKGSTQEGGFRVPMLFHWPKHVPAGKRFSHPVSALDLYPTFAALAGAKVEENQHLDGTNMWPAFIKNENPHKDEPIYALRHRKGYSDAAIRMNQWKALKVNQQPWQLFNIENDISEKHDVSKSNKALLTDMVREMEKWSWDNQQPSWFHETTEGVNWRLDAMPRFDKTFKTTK

S1_19B = target: T4, S1_19B (Pseudoalteromonas fuliginea, UniProt A0ABQ6RIL2, C77S); assay: crystal structure of the complex; format: binding; details: co-crystallization; inactive (non-productive) complex; C77S inferred from methods (mutants in complex with ligands)
T4 construct: gene EU509_08890; residues 28-473, signal peptide removed, pET28a N-terminal His-tag (cut by thrombin for crystals), E. coli BL21(DE3) Star with formylglycine generating enzyme; dimer
T4 sequence (A0ABQ6RIL2 entry or part of it C77S): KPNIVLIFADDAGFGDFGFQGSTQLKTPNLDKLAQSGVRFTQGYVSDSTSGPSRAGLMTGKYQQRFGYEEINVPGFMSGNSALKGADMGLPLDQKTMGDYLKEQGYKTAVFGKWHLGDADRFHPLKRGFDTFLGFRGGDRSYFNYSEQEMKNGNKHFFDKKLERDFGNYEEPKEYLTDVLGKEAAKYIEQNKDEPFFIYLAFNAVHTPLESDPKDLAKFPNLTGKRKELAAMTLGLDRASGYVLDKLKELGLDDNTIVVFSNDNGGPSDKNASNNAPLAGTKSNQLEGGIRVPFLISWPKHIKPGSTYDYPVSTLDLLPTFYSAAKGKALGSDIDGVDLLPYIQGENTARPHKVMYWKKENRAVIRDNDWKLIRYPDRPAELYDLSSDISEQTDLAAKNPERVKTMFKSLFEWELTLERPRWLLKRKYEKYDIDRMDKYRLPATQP

S1_NC = target: T5, S1_NC (Pseudoalteromonas fuliginea, UniProt A0ABQ6RIJ3, C84S); assay: crystal structure of the complex; format: binding; details: crystal soaking; only the non-reducing end disaccharide (ι-NC2) modelled; active site
T5 construct: gene EU509_08820; residues 34-507, signal peptide removed, pET28a N-terminal His-tag cut by thrombin for crystals, E. coli BL21(DE3) Star
T5 sequence (A0ABQ6RIJ3 entry or part of it C84S): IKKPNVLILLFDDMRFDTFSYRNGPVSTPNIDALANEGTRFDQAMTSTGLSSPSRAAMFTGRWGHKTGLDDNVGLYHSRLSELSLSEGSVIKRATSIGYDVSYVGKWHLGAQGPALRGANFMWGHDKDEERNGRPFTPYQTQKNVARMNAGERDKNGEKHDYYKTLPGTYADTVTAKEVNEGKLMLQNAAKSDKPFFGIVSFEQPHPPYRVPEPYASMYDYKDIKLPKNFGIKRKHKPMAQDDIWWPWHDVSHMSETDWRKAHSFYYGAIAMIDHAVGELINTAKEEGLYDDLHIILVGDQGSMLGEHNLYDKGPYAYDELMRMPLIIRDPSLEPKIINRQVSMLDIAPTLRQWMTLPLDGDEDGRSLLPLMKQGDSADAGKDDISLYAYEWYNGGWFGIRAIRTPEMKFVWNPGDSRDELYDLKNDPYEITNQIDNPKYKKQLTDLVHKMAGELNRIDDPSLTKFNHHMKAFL

[3] = target: DauA, 3,6-anhydro-D-galactose dehydrogenase from Pseudoalteromonas fuliginea PS47 (Pseudoalteromonas fuliginea PS47); assay: crystal structure; hanging drop vapor-diffusion at 18 °C; N-terminal His-Tag cleaved with thrombin before crystallization

- stoichiometry N [1]: 2
- stoichiometry N [2]: 2
Molecule: S1_19B, exo-G4S κ-carrageenan sulfatase from Pseudoalteromonas fuliginea PS47 (enzyme)

Molecule: O=S(=O)(O)O[C@@H]1[C@H](O[C@H]2O[C@@H]3CO[C@H]([C@H]2O)[C@H]3O[C@@H]2O[C@H](CO)[C@H](O)[C@H](O[C@H]3O[C@@H]4CO[C@@H]([C@H]4O)[C@H]3O)[C@H]2O)[C@@H](O)C(O)O[C@@H]1CO (stereo partly drawn) [β/κ-NC4, β/κ-neocarratetraose]
- thin layer chromatography of products (BovGH167): has the same enzymatic activity as GH167 (Fig. 5a)
- thin layer chromatography of products (GH167): Using TLC we found activity on hybrid β/κ-neocarratetraose (β/κ-NC4)

Molecule: O=S(=O)(O)O[C@@H]1[C@H](O[C@H]2O[C@@H]3CO[C@@H]([C@H]3O)[C@H]2OS(=O)(=O)O)[C@@H](O)[C@H](O[C@@H]2[C@@H]3OC[C@H]2O[C@H](O[C@H]2[C@@H](OS(=O)(=O)O)[C@@H](CO)OC(O)[C@@H]2O)[C@@H]3OS(=O)(=O)O)O[C@@H]1CO (some centres unmarked) [ι-NC4, ι-neocarratetraose]
- product analysis, details in supplement (S1_19A): can remove the 4-sulfate from the G4S residue that is adjacent to the non-reducing end
- crystal structure of the complex (S1_19B): the structure of this enzyme in complex with ι-NC4 revealed the ability of the enzyme to bind
- crystal structure of the complex (S1_NC): structural analysis of the S1_NC C84S mutant in complex with ι-NC4

- stoichiometry N [3]: 2
Molecule: DauA, 3,6-anhydro-D-galactose dehydrogenase from Pseudoalteromonas fuliginea PS47 (enzyme)
